Measurements as given in patent publication US6696497B2, “Fungicidal mixtures” (BASF Aktiengesellschaft, priority 2000, dated 2004).

Tests used:
[1] = test system: Plasmopara viticola on grapes; test: Fungicidal efficacy (3 day residual) on grapes, greenhouse; type: in vivo; settings: single compound
Description: (§1) The trials are carried out under greenhouse conditions in residual or curative applications. The fungicides are applied in single treatments, or in a combination comprising a benzophenone of formula I and a compound of formula II. The compounds are applied in form of an aqueous spray mix obtained from concentrated formulation or the technical material.
(§2) Grape plants of variety “Mueller-Thurgau” are grown in the greenhouse from small stake cuttings. When about 40 cm high, the number of leaves is reduced to 4 fully expanded leaves per plant.
(§3) The compounds are dissolved in acetone with 0.5% TRITON™ X155 (an alkylaryl polyether alcohol), and sprayed in concentrations and combinations as given in tables I and II with a three nozzle overhead fungicide sprayer to near run-off. Plants are then allowed to air-dry.
(§4) Inoculation precedes treatment in the case of curative evaluations and follows treatment in case of residual evaluations.
(§5) For inoculation an aqueous spore suspension of the pathogen is applied to the plant and the plants are kept 1-2 days in a moist infection chamber before being returned to the greenhouse where they are maintained by bottom watering.
(§6) Disease on the foliage as percent leaf area with disease symptoms/signs is evaluated about 7 days after inoculation. [formula]
(§7) Assessments of the diseases took place at the indicated day after the application of the compounds. Percent infected leaf area infected was evaluated. The efficacy of the compounds/compounds mixtures to control the diseases was calculated by using the formula given above.
(§8) Synergy was calculated using the % disease control values of specific treatments for the two COLBY formula given hereinabove.
Fungicidal efficacy of the mixture of BP-4+iprovalicarb (3 day residual) against Plasmopara viticola on grapes
tank mix was obtained from technical materials of BP-4 and iprovalicarb.

[2] = test system: Plasmopara viticola on grapes; test: Fungicidal efficacy (2 day curative) on grapes, greenhouse; type: in vivo; settings: single compound
Description: as §1, §2, §3, §4, §5, §6, §7, §8
Fungicidal efficacy of the mixture of BP-4+iprovalicarb (2 day curative) against Plasmopara viticola on grapes
The tank mix was obtained from technical materials of BP-4 and iprovalicarb.

SMILES	Observed Efficacy ([1]; dose rate 0.037 ppm) [%]	Observed Efficacy ([1]; dose rate 0.11 ppm) [%]	Observed Efficacy ([1]; dose rate 0.33 ppm) [%]	Observed Efficacy ([1]; dose rate 1 ppm) [%]	Observed Efficacy ([1]; dose rate 3 ppm) [%]	Observed Efficacy ([1]; dose rate 9 ppm) [%]	Observed Efficacy ([1]; dose rate 27 ppm) [%]	Observed Efficacy ([2]; dose rate 0.037 ppm) [%]	Observed Efficacy ([2]; dose rate 0.11 ppm) [%]	Observed Efficacy ([2]; dose rate 0.33 ppm) [%]	Observed Efficacy ([2]; dose rate 1 ppm) [%]	Observed Efficacy ([2]; dose rate 3 ppm) [%]	Observed Efficacy ([2]; dose rate 9 ppm) [%]	Observed Efficacy ([2]; dose rate 27 ppm) [%]
COc1cc(C)c(C(=O)c2c(OC)ccc(Br)c2C)c(OC)c1OC [BP-4, 5-bromo-2′,6-dimethyl-2,4′,5′,6′-tetramethoxybenzophenone]	0	0	0	0	1	4	6	0	0	0	0	0	0	2
Cc1ccc(C(C)NC(=O)C(NC(=O)OC(C)C)C(C)C)cc1 (stereo not drawn) [iprovalicarb, [2-methyl-1-[1-(4-methylphenyl)-ethylaminocarbonyl]-propyl]-carbamic acid isopropyl ester, reference compound]	–	0	3	11	55	90	–	–	0	2	11	63	91	–
